Data: patent US20070293568A1, “Neurocyte Protective Agent” (priority 2006, published 2007)

Tests used:
[1] = system: TH positive cell specific MnSOD-deficient mice (KO mice); test: Body weight change of KO mice given YAX in the diet; assay type: in vivo; conditions: overall conclusion from body weight, life span and behavior in TH positive cell specific MnSOD-deficient mice
From the text: As genetically modified mice serving as models for neurodegeneration, in which MnSOD has been specifically deficient in dopamine cells of the substantia nigra and noradrenaline cells of the locus ceruleus in the central nervous system, tyrosine hydroxylase (TH) positive cell specific MnSOD-deficient mice were generated based on the method described in WO 2004/014131. Specifically, first, a homozygous MnSOD flox mouse (lox/lox, +/+) was mated with a TH-Cre transgenic mouse controlled by a TH (tyrosine hydroxylase) promoter, so that heterozygous mice (lox/w, Cre/+) having the TH-Cre transgene were generated. Then, the heterozygous mouse and a MnSOD flox mouse were mated to generate the TH positive cell specific MnSOD-deficient mice (lox/lox, Cre/+) of interest.
The YAX prepared in Preparation Example 2 was used as the astaxanthin, and this was administered with the diet. […] It should be noted that for comparison, the KO mice in the control group fed with an ordinary diet not containing YAX were monitored in the same manner.
The body weight was measured once a week, and a Student's t-test was performed. The life span was analyzed using the Kaplan-Meier method. […] The behavior was analyzed by the footprinting test. […] Specifically, ink is applied to the hind feet of the mice and the mice are allowed to walk, and the width of the footprints left behind is analyzed. […]

[2] = system: mice, cerebral ischemia/reperfusion; conditions: reperfusing after cerebral ischemia, astaxanthin administered; cited from earlier work
[3] = system: lipid peroxide in the blood; conditions: cited from earlier work

CC1=C(/C=C/C(C)=C/C=C/C(C)=C/C=C/C=C(C)/C=C/C=C(C)/C=C/C2=C(C)C(=O)[C@@H](O)CC2(C)C)C(C)(C)C[C@H](O)C1=O [astaxanthin]
neurocyte protective activity [1]: powerful neurocyte protective activity
depression in motor ability [2]: suppressed
lipid peroxide in the blood [3]: suppresses
